Entries after “also recorded” stand apart in the source; their conditions may differ.
What was measured:
SNU-5 cells = experiment: Nanoparticle uptake by image-based flow cytometry; type: cell-based; conditions: for High uptake (red), percentage of cells / Low uptake (blue), percentage of cells / No uptake (green), percentage of cells: SNU-5, 8 h incubation, 100 μg/mL
Experimental: An Amnis FlowSight image-based flow cytometer equipped with a 488 nm (60 mW) and Side Scatter (7.85 mW) (EMD Millipore; Seattle, Wash.) was used to analyze cell samples. The FlowSight uses a CCD camera system to simultaneously collect both quantitative fluorescence and image data. For uptake studies, SNU-5 cells were incubated with Co-Alb-FITC NPs in the presence or absence of a commonly used inhibitor of macropinocytosis, 5-(N-ethyl-N-isopropyl)amiloride (EIPA), followed by fixation, and analysis via image-based flow cytometry.
SNU-5 cells were cultured at 37° C. and 5% CO2 in IMDM medium supplemented with 20% fetal bovine serum at cell densities between 1×10^5 and 1×10^6 cells/mL, and Jurkat cells were cultured at 37° C. and 5% CO2 in RPMI-1640 medium supplemented with 10% fetal bovine serum at cell densities between 1×10^5 and 1×10^6 cells/mL. For nanoparticle uptake experiments, cells were transferred to serum-starved IMDM or RPMI-1640 medium (0.1% FBS) and incubated at 37° C. and 5% CO2 for 10-16 h prior to dosing with nanoparticles. Cells (2 mL, 500,000 cells/mL) were incubated with the desired nanoparticle or control particle solution (100 μg/mL) with or without added EIPA for the times indicated. Cells were then washed twice with PBS, fixed for 12 min in 3.7% formaldehyde in PBS, washed twice with PBS, stained with NucBlue® Fixed Cell ReadyProbes® Reagent, and then washed twice more with PBS. Samples were either analyzed immediately or stored at 4° C. in the dark until analysis.

[1] = Analysis of PEGylation reaction by DLS, ethanolamine challenge of the Co linkage; type: physicochemical
Experimental: While sonicating (Branson, model #2510), human transferrin (0.5 mL of a 1 mg/mL aqueous solution, Sigma-Aldrich, cat. #T0665-50MG, lot #SLBC […]) was added. The solution had no discernible color and was allowed to stand undisturbed for 15 min. Dynamic light scattering (DLS, Microtrac Nanotrac Ultra) was used to measure particle size where the volume average particle size was 13.6 nm (standard deviation=4.2 nm). Hydrogen peroxide (20 μL of a 30% solution, Mallinckrodt AR, cat. #5240, lot #5240Y23470) was added while sonicating and the solution was thoroughly mixed by pipetting. The solution became faintly yellow but with no turbity. The solution was allowed to stand undisturbed for 30 min. Analysis of PEGylation reaction by DLS. The average diameter of both human transferrin (6.8 nm, SD=1.8 nm) and H2N-PEG-COOH (4.8 nm, SD=1.2 nm) were measured by DLS (FIG. 5). […] Addition of ethanolamine (50 mM) at this point led to a decrease in particle size back to 6.4 nm (SD=2.0) thereby degrading the prodrug linkage due to facile exchange of the Co amino ligands.

## FITC-Alb only
SNU-5 cells; EIPA 0 μM
  High uptake (red), percentage of cells: 13.9%
  Low uptake (blue), percentage of cells: 45.4%
  No uptake (green), percentage of cells: 40.6%
SNU-5 cells; EIPA 75 μM
  High uptake (red), percentage of cells: 16.9%
  Low uptake (blue), percentage of cells: 11.8%
  No uptake (green), percentage of cells: 71.3%
SNU-5 cells; SNU-5, free protein 100 μg/mL, no NPs
  Uptake in the presence of EIPA: reduction in uptake

## transferrin-PEG conjugate
[1]; ethanolamine 50 mM, not oxidized (Co(II))
  Particle size after addition of ethanolamine: 6.4 nm
[1]; oxidized 30 min with H2O2 (Co(III)) before ethanolamine
  Average diameter after addition of ethanolamine: 18.3 nm

## CCN(c1nc(N)c(C(=O)N=C(N)N)nc1Cl)C(C)C [EIPA, 5-(N-ethyl-N-isopropyl)amiloride]
SNU-5 cells; SNU-5, 100 μM EIPA
  Cell viability in the uptake experiment: slight decrease in cell viability
SNU-5 cells; SNU-5, pre-incubation with inhibitor
  Effect on uptake of Co-Alb-FITC NPs: dramatic reduction in particle uptake; also recorded: reduce uptake in a dose-dependent manner
SNU-5 cells; SNU-5, uptake of Co-Alb-FITC NPs
  Inhibitory effect on uptake over time: remained relatively constant over 8 h, but became greatly diminished at 24 h
